According to patent US20060240048A1 (priority 2002, published 2006):

Target: T1, human cannabinoid CB2 receptor (Homo sapiens, UniProt P34972)
T1 construct: expressed in transfected cells; host or cells: Saccharomyces cerevisiae strain MMY23
Experiment: Cannabinoid CB2 receptor agonist activity, yeast reporter assay (FDGlu fluorescence);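 on Emax: 100% equals maximal response of reference agonist HU210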
Type: cell-based
Settings: for Emax: read-out: efficacy value (Emax) at the cloned human cannabinoid CB2 receptor

T1 sequence (P34972 whole entry): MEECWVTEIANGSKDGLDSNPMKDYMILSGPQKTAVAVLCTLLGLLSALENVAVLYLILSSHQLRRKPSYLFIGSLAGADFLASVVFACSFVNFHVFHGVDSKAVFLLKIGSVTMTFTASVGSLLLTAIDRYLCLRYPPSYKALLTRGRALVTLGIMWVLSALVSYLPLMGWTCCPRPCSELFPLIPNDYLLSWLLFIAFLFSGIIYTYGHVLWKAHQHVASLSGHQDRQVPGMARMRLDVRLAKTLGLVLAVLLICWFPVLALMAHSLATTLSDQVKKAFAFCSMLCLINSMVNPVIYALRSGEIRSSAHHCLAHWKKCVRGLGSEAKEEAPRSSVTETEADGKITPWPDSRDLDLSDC

Structure (SMILES)	EC50 [nM]	Emax [%]
O=C(NCC1CCCCCC1)c1cnc(Nc2cccc(Cl)c2Cl)cc1C(F)(F)F [Example 137, N-Cycloheptylmethyl-6-(2,3-dichloro-phenylamino)-4-tri-fluoromethyl-nicotinamide]	< 300	> 50
O=C(NCC1CCCCC1)c1cnc(Nc2ccc(Cl)cc2Cl)cc1C(F)(F)F [Example 138, N-Cyclohexylmethyl-6-(2,4-dichloro-phenylamino)-4-tri-fluoromethyl-nicotinamide]	< 300	> 50
O=C(NCC1CCCCCC1)c1cnc(Nc2ccc(Cl)cc2Cl)cc1C(F)(F)F [Example 139, N-Cycloheptylmethyl-6-(2,4-dichloro-phenylamino)-4-tri-fluoromethyl-nicotinamide]	< 300	> 50
O=C(NC1CCC1)c1cnc(Nc2ccc(Cl)cc2Cl)cc1C(F)(F)F [Example 140, N-Cyclobutyl-6-(2,4-dichloro-phenylamino)-4-trifluoro-methyl-nicotinamide]	< 300	> 50
O=C(NCC1CCCC1)c1cnc(Nc2ccc(Cl)cc2Cl)cc1C(F)(F)F [Example 141, N-Cyclopentylmethyl-6-(2,4-dichloro-phenylamino)-4-tri-fluoromethyl-nicotinamide]	–	> 50
O=C(NCC1CCC1)c1cnc(Nc2ccc(Cl)cc2Cl)cc1C(F)(F)F [Example 142, N-Cyclobutylmethyl-6-(2,4-dichloro-phenylamino)-4-tri-fluoromethyl-nicotinamide]	< 300	> 50
CC(C)CNC(=O)c1cnc(Nc2ccc(Cl)cc2Cl)cc1C(F)(F)F [Example 143, N-Isobutyl-6-(2,4-dichloro-phenylamino)-4-trifluoro-methyl-nicotinamide]	< 300	> 50
O=C(NCC1CC1)c1cnc(Nc2ccc(Cl)cc2Cl)cc1C(F)(F)F [Example 144, N-Cyclopropylmethyl-6-(2,4-dichloro-phenylamino)-4-tri-fluoromethyl-nicotinamide]	< 300	> 50
O=C(NCC1CCCCC1)c1cnc(Nc2cc(Cl)cc(Cl)c2)cc1C(F)(F)F [Example 146, N-Cyclohexylmethyl-6-(3,5-dichloro-phenytamino)-4-tri-fluoromethyl-nicotinamide]	< 300	> 50
O=C(NCC1CCOCC1)c1cnc(Nc2cc(Cl)cc(Cl)c2)cc1C(F)(F)F [Example 147, N-(Tetrahydropyran-4-yl-methyl)-6-(3,5-dichloro-phenylamino)-4-trifluoro-methyl-nicotinamide]	< 300	> 50
O=C(NC1CCC1)c1cnc(Nc2cc(Cl)cc(Cl)c2)cc1C(F)(F)F [Example 148, N-Cyclobutyl-6-(3,5-dichloro-phenylamino)-4-trifluoro-methyl-nicotinamide]	< 300	> 50
O=C(NCC1CCCC1)c1cnc(Nc2cc(Cl)cc(Cl)c2)cc1C(F)(F)F [Example 149, N-Cyclopentylmethyl-6-(3,5-dichloro-phenylamino)-4-tri-fluoromethyl-nicotinamide]	< 300	> 50
O=C(NCC1CCC1)c1cnc(Nc2cc(Cl)cc(Cl)c2)cc1C(F)(F)F [Example 150, N-Cyclobutylmethyl-6-(3,5-dichloro-phenylamino)-4-tri-fluoromethyl-nicotinamide]	< 300	> 50
CC(C)CNC(=O)c1cnc(Nc2cc(Cl)cc(Cl)c2)cc1C(F)(F)F [Example 151, N-Isobutyl-6-(3,5-dichloro-phenylamino)-4-trifluoro-methyl-nicotinamide]	< 300	> 50
O=C(NCC1CC1)c1cnc(Nc2cc(Cl)cc(Cl)c2)cc1C(F)(F)F [Example 152, N-Cyclopropylmethyl-6-(3,5-dichloro-phenylamino)-4-tri-fluoromethyl-nicotinamide]	< 300	> 50
CC(C)CNC(=O)c1cnc(Nc2ccc(Cl)c(Cl)c2)cc1C(F)(F)F [Example 153, N-Isobutyl-6-(3,4-dichloro-phenylamino)-4-trifluoro-methyl-nicotinamide]	< 300	> 50
O=C(NC1CCC1)c1cnc(Nc2ccc(Cl)c(Cl)c2)cc1C(F)(F)F [Example 154, N-Cyclobutyl-6-(3,4-dichloro-phenylamino)-4-trifluoro-methyl-nicotinamide]	< 300	> 50
O=C(NCC1CCOCC1)c1cnc(Nc2ccc(Cl)c(Cl)c2)cc1C(F)(F)F [Example 155, N-(Tetrahydropyran-4-yl-methyl)-6-(3,4-dichloro-phenylamino)-4-trifluoro-methyl-nicotinamide]	< 300	> 50
O=C(NCC1CCCC1)c1cnc(Nc2ccc(Cl)c(Cl)c2)cc1C(F)(F)F [Example 156, N-Cyclopentylmethyl-6-(3,4-dichloro-phenylamino)-4-tri-fluoromethyl-nicotinamide]	< 300	> 50

Structure (SMILES)	EC50 [nM]	Emax [%]
O=C(NCC1CCC1)c1cnc(Nc2ccc(Cl)c(Cl)c2)cc1C(F)(F)F [Example 157, N-Cyclobutylmethyl-6-(3,4-dichloro-phenylamino)-4-tri-fluoromethyl-nicotinamide]	< 300	> 50
O=C(NCC1CC1)c1cnc(Nc2ccc(Cl)c(Cl)c2)cc1C(F)(F)F [Example 158, N-Cyclopropylmethyl-6-(3,4-dichloro-phenylamino)-4-tri-fluoromethyl-nicotinamide]	< 300	> 50
O=C(NCC1CCCCC1)c1cnc(Nc2ccc(Cl)c(Cl)c2)cc1C(F)(F)F [Example 159, N-Cyclohexylmethyl-6-(3,4-dichloro-phenylamino)-4-tri-fluoromethyl-nicotinamide]	< 300	> 50
O=C(NCC1CCC1)c1cnc(Nc2ccc(Cl)cc2F)cc1C(F)(F)F [Example 160, N-Cyclobutylmethyl-6-(2-fluoro-4-chloro-phenyl-amino)-4-trifluoromethyl-nicotinamide]	< 300	> 50
O=C(NCC1CCCC1)c1cnc(Nc2ccc(Cl)cc2F)cc1C(F)(F)F [Example 161, N-Cyclopentylmethyl-6-(2-fluoro-4-chloro-phenyl-amino)-4-trifluoromethyl-nicotinamide]	< 300	> 50
O=C(NCC1CCOCC1)c1cnc(Nc2ccc(Cl)cc2F)cc1C(F)(F)F [Example 162, N-(Tetrahydropyran-4-yl-methyl)-6-(2-fluoro-4-chloro-phenylamino)-4-trifluoro-methyl-nicotinamide]	< 300	> 50
O=C(NCC1CCC1)c1cnc(Nc2ccc(F)cc2Cl)cc1C(F)(F)F [Example 163, N-Cyclobutylmethyl-6-(2-Chloro-4-fluoro-phenyl-amino)-4-trifluoromethyl-nicotinamide]	< 300	> 50
O=C(NCC1CCCC1)c1cnc(Nc2ccc(F)cc2Cl)cc1C(F)(F)F [Example 164, N-Cyclopentylmethyl-6-(2-Chloro-4-fluoro-phenyl-amino)-4-trifluoromethyl-nicotinamide]	< 300	> 50
O=C(NCC1CCOCC1)c1cnc(Nc2ccc(F)cc2Cl)cc1C(F)(F)F [Example 165, N-(Tetrahydropyran-4-yl-methyl)-6-(2-chloro-4-fluoro-phenylamino)-4-trifluoro-methyl-nicotinamide]	< 300	> 50
O=C(NCC1CCC1)c1cnc(Nc2ccc(F)cc2F)cc1C(F)(F)F [Example 166, N-Cyclobutylmethyl-6-(2,4-difluoro-phenylamino)-4-tri-fluoromethyl-nicotinamide]	< 300	> 50
O=C(NCC1CCCC1)c1cnc(Nc2ccc(F)cc2F)cc1C(F)(F)F [Example 167, N-Cyclopentylmethyl-6-(2,4-difluoro-phenylamino)-4-tri-fluoromethyl-nicotinamide]	< 300	> 50
COc1ccc(Cl)cc1Nc1cc(C(F)(F)F)c(C(=O)NCC2CCC2)cn1 [Example 169, N-Cyclobutylmethyl-6-(2-methoxy-5-chloro-phenyl-amino)-4-trifluoromethyl-nicotinamide]	–	> 50
O=C(NCC1CCOCC1)c1cnc(Nc2cc(Cl)ccc2O)cc1C(F)(F)F [Example 170, N-(Tetrahydropyran-4-yl-methyl)-6-(2-hydroxy-5-chloro-phenylamino)-4-trifluoromethyl-nicotinamide]	< 300	> 50
Cc1cc(Cl)ccc1Nc1cc(C(F)(F)F)c(C(=O)NCC2CCCCC2)cn1 [Example 171, N-Cyclohexylmethyl-6-(2-methyl-4-chloro-phenyl-amino)-4-trifluoromethyl-nicotinamide]	< 300	> 50
Cc1cc(Cl)ccc1Nc1cc(C(F)(F)F)c(C(=O)NCC2CCOCC2)cn1 [Example 172, N-(Tetrahydropyran-4-yl-methyl)-6-(2-methyl-4-chloro-phenylamino)-4-trifluoro-]	–	> 50
O=C(NCC1CCCCCC1)c1cnc(Nc2cc(Cl)cc(Cl)c2)cc1C(F)(F)F [Example 175, N-Cycloheptylmethyl-6-(3,5-dichloro-phenyiamino)-4-trifluoromethyl-nicotinamide]	–	> 50
O=C(NCC1CCOCC1)c1ccc(Nc2cccc(Cl)c2)nc1C(F)(F)F [Example 204, 6-(3-Chloro-phenylamino)-N-(tetrahydro-pyran-4-ylmethyl)-2-trifluoromethyl-nicotinamide]	< 300	> 50
CC(C)c1nc(Nc2cccc(Cl)c2)ccc1C(=O)NCC1CCOCC1 [Example 208, 6-(3-Chloro-phenylamino)-2-isopropyl-N-(tetrahydro-pyran-4-ylmethyl)-nicotinamide]	< 300	> 50
CC(C)c1nc(Nc2cccc(Cl)c2)ccc1C(=O)NCC1CCS(=O)(=O)C1 (stereo not drawn) [Example 209, 6-(3-Chloro-phenylamino)-N-(1,1-dioxo-tetrahydrothiophen-3-ylmethyl)-2-isopropyl-nicotinamide]	< 300	> 50
